13 molecules from patent US9926297B2, “Bicyclic AZA compounds as muscarinic M1 receptor and/or M4 receptor agonists” (Heptares Therapeutics Limited, priority 2014, dated 2018) can be followed below.

Assay [1] concerns the target T1, human muscarinic M4 receptor (Homo sapiens, UniProt P08173).
T1 construct: expressed in transfected cells
T1 sequence (P08173 1-479): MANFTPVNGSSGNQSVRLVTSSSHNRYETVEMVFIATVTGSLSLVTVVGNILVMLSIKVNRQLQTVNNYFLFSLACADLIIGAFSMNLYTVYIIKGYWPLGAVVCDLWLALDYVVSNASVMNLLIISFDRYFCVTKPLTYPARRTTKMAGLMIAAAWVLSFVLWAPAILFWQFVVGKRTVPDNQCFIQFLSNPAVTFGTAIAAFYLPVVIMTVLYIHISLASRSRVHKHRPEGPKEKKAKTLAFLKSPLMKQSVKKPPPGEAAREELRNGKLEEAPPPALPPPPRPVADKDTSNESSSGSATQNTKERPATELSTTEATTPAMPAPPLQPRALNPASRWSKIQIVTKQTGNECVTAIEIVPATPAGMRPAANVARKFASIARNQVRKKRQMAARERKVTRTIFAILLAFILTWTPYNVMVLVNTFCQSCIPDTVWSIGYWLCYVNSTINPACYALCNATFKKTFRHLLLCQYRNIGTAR
Briefly: Alphascreen Surefire phospho-ERK1/2 functional assay, M4. In kind it is cell-based. The conditions noted are these: for EC50 / % Emax cf. ACh, M4: CHO cells stably expressing human M4; for EC50: phospho-ERK1/2, * = variable results, read-out: pEC50 M4 (converted); for Emax: CHO, read-out: % Emax cf. ACh, M4, CHO cells stably expressing human M4; for Emax / % Emax cf. ACh, M4: relative to ACh.
Description: (§1) CHO cells stably expressing the human muscarinic M1, M2, M3 or M4 receptor were plated (25K/well) onto 96-well tissue culture plates in MEM-alpha+10% dialysed FBS. Once adhered, cells were serum-starved overnight. Agonist stimulation was performed by the addition of 5 μL agonist to the cells for 5 min (37° C.). Media was removed and 50 μL of lysis buffer added. After 15 min, a 4 μL sample was transferred to 384-well plate and 7 μL of detection mixture added. Plates were incubated for 2 h with gentle agitation in the dark and then read on a PHERAstar plate reader.
(§2) pEC50 and Emax figures were calculated from the resulting data for each receptor subtype.

Assay [2] addresses human muscarinic M3 receptor (Homo sapiens, UniProt P20309). Nature of the assay: Alphascreen Surefire phospho-ERK1/2 functional assay, M3. The conditions noted are these: for Emax: CHO, read-out: % Emax cf. ACh, M3, CHO cells stably expressing human M3; for EC50: pEC50 M3, CHO cells stably expressing human M3, phospho-ERK1/2, * = variable results.
Description: as §1, §2
Assay [3] has as its target T2, human muscarinic M2 receptor (Homo sapiens, UniProt P08172).
T2 sequence (P08172 1-466): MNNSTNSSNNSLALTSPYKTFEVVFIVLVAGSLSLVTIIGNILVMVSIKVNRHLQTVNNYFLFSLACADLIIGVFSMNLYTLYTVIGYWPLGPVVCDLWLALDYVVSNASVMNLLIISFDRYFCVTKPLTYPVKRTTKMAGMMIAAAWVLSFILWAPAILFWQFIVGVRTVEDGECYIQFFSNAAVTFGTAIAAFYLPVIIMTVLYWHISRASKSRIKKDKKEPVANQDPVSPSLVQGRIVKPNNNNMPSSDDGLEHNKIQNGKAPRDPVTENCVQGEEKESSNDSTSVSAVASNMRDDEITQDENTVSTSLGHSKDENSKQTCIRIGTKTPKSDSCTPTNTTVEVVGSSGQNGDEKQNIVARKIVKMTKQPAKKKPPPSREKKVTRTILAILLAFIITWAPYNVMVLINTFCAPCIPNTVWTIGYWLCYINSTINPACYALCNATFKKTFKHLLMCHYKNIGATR
Nature of the assay: Alphascreen Surefire phospho-ERK1/2 functional assay, M2. The conditions noted are these: for Emax: CHO, read-out: % Emax cf. ACh, M2, CHO cells stably expressing human M2; for Emax / % Emax cf. ACh, M2: relative to ACh; for % Emax cf. ACh, M2: CHO cells stably expressing human M2.

Assay [4] has as its target T3, human muscarinic M1 receptor (Homo sapiens, UniProt P11229).
T3 sequence (P11229 1-460): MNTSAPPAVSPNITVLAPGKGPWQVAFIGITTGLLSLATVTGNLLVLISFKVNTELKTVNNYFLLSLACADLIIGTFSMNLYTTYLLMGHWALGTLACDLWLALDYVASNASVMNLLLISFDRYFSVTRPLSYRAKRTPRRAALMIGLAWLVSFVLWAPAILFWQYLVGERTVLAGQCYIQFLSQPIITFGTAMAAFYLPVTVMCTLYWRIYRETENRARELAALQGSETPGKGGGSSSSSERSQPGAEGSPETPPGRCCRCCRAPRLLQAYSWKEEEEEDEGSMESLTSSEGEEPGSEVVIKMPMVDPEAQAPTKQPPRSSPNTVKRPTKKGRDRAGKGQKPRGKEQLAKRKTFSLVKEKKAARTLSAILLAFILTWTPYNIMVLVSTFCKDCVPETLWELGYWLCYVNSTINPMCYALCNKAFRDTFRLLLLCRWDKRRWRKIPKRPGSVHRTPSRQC
Nature of the assay: Alphascreen Surefire phospho-ERK1/2 functional assay, M1. In kind it is cell-based. The conditions noted are these: for EC50: phospho-ERK1/2, * = variable results, read-out: pEC50 M1 (converted); for Emax: CHO, read-out: % Emax cf. ACh, M1, CHO cells stably expressing human M1.

Where [5] appears, read: CHO cells stably expressing human M1.

The structures appear in SMILES notation.

Chain of human muscarinic M3 receptor (P20309 whole entry): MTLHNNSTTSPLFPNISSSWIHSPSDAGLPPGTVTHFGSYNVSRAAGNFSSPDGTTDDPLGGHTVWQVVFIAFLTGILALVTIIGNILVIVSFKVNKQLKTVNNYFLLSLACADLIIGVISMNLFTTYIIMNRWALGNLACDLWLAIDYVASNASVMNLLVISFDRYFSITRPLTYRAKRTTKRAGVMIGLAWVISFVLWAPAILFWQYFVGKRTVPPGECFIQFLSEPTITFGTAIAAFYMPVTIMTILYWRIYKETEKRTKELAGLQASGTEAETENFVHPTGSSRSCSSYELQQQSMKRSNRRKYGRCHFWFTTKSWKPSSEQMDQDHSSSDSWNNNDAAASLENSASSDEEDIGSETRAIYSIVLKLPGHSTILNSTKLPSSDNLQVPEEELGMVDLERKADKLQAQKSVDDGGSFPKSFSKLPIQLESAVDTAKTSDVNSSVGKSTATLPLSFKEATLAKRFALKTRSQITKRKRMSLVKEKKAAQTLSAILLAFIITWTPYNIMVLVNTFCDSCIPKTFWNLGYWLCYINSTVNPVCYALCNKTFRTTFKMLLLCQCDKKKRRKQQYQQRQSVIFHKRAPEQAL

Consider `CCOC(=O)N1CCC2(CC(N3CCC([C@@H]4CCCN4C(=O)N(C)C4COC4)CC3)C2)C1` (single isomer, unassigned) [2-57 Isomer 2], for which the EC50 was 31.6 nM in assay [1], greater than 20000 nM in assay [2], greater than 20000 nM in assay [3] and greater than 20000 nM in assay [4] (setting [5]). The Emax in assay [1] turned out to be 117%; in assay [2] (relative to ACh) it was 4%; in assay [3], 25%; in assay [4] (relative to ACh), 16%.
Take `CCOC(=O)N1CCC2(CC(N3CCC([C@@H]4CCCN4C(=O)NCCOC)CC3)C2)C1` (single isomer, unassigned) [2-31 Isomer 2]: the EC50 is 3.16 nM in assay [1], greater than 20000 nM in assay [2], greater than 20000 nM in assay [3] and 126 nM in assay [4] (setting [5]). Moreover, the Emax in assay [1] was found to be 108%; in assay [2] (relative to ACh), 7%; in assay [3] it was 7%; in assay [4] (relative to ACh) it was 93%.
Consider `CCOC(=O)N1CCC2(CC(N3CCC(c4c(C)cnn4C)CC3)C2)C1` (single isomer, unassigned) [1-58 Isomer 2, ethyl 2-[4-(1,4-dimethyl-1H-pyrazol-5-yl)piperidin-1-yl]-6-azaspiro[3.4]octane-6-carboxylate], for which the EC50 in assay [1] was 31.6 nM; in assay [2] it was greater than 20000 nM; in assay [3], greater than 20000 nM; in assay [4] (setting [5]) it was 794 nM. The Emax in assay [1] was 93%; in assay [2] (relative to ACh), 2%; in assay [3] it was 13%; in assay [4] (relative to ACh), 55%.
As to `CCOC(=O)N1CCC2(CC(N3CCC(n4cc(C)cn4)CC3)C2)C1` (single isomer, unassigned) [1-34 Isomer 1, ethyl 2-[4-(4-methyl-1H-pyrazol-1-yl)piperidin-1-yl]-6-azaspiro[3.4]octane-6-carboxylate], the EC50 in assay [1] is 158 nM; in assay [2], greater than 20000 nM; in assay [3] it was greater than 20000 nM; in assay [4] (setting [5]) it was 501 nM. Further, the “% Emax cf. ACh, M4” value in assay [1] stood at 48%. Also, in assay [2] (relative to ACh), the Emax came to 0%. Besides, the “% Emax cf. ACh, M2” value in assay [3] was 10%. The “% Emax cf. ACh, M1” value in assay [4] (CHO cells stably expressing human M1, relative to ACh) is 49%.
On to `CCOC(=O)N1CCC2(CC(N3CCC(c4cc(C)cnc4OC)CC3)C2)C1` (single isomer, unassigned) [3-12 Isomer 2, ethyl 2-[4-(2-methoxy-5-methylpyridin-3-yl)piperidin-1-yl]-6-azaspiro[3.4]octane-6-carboxylate], for which the EC50 in assay [1] is 3.98 nM; in assay [2], greater than 20000 nM; in assay [3], greater than 20000 nM; in assay [4] (setting [5]), 251 nM. In addition, the Emax in assay [1] was determined as 110%; in assay [2] (relative to ACh) it was 5%; in assay [3] it was 2%; in assay [4] (relative to ACh), 34%.
`CCOC(=O)N1CCC2(CC(N3CCC([C@@H]4CCCN4C(=O)N(C)OC)CC3)C2)C1` (single isomer, unassigned) [2-34 Isomer 1]: the EC50 was 25.1 nM in assay [1], greater than 20000 nM in assay [2], greater than 20000 nM in assay [3] and 2000 nM in assay [4] (setting [5]). The “% Emax cf. ACh, M4” value in assay [1] stood at 89%. For the same molecule, in assay [2] (CHO cells stably expressing human M3, relative to ACh), the “% Emax cf. ACh, M3” value is given as 8%. Moreover, in assay [3], the “% Emax cf. ACh, M2” value worked out at 16%. The Emax in assay [4] (relative to ACh) stood at 74%.
Turning to `CCOC(=O)N1CCC2(CC(N3CCC(c4nc(Cl)c(Cl)[nH]4)CC3)C2)C1` (single isomer, unassigned) [1-5 Isomer 2, ethyl 2-[4-(4,5-dichloro-1H-imidazol-2-yl)piperidin-1-yl]-6-azaspiro[3.4]octane-6-carboxylate], the EC50 was 20 nM in assay [1], greater than 20000 nM in assay [2], greater than 20000 nM in assay [3] and 126 nM in assay [4] (setting [5]). The Emax amounted to 81% in assay [1], 2% in assay [2] (relative to ACh), 19% in assay [3] and 94% in assay [4] (relative to ACh).
As for `CCOC(=O)N1CCC2(CC(N3CCC(c4ccn[nH]4)CC3)C2)C1` (single isomer, unassigned) [1-18 Isomer 2, ethyl 2-[4-(1H-pyrazol-5-yl)piperidin-1-yl]-6-azaspiro[3.4]octane-6-carboxylate], the EC50 was 50.1 nM in assay [1], greater than 20000 nM in assay [2], greater than 20000 nM in assay [3] and 126 nM in assay [4] (setting [5]). Besides, the maximal effect (Emax) in assay [1] worked out at 89%; in assay [2] (relative to ACh), 56%; in assay [3] it was 3%; in assay [4] (relative to ACh), 65%.
On to `CCOC(=O)N1CCC2(CC(N3CCC(N4CC(F)(F)C[C@@H]4C(=O)OC)CC3)C2)C1` (single isomer, unassigned) [2-87 Isomer 2], for which the EC50 in assay [1] is 15.8 nM; in assay [2], greater than 20000 nM; in assay [3] it was greater than 20000 nM; in assay [4] (setting [5]), 398 nM. Also, the Emax in assay [1] worked out at 100%; in assay [2] (relative to ACh) it was 3%; in assay [3], 54%; in assay [4] (relative to ACh), 46%.
For the molecule `CCOC(=O)N1CCC2(CC(N3CCC(c4nc(Cl)c[nH]4)CC3)C2)C1` (single isomer, unassigned) [1-2 Isomer 2, ethyl 2-[4-(4-chloro-1H-imidazol-2-yl)piperidin-1-yl]-6-azaspiro[3.4]octane-6-carboxylate], the EC50 in assay [1] was 25.1 nM; in assay [2], greater than 20000 nM; in assay [3], greater than 20000 nM; in assay [4] (setting [5]), 251 nM. Further, the Emax came out at 100% in assay [1], 4% in assay [2] (relative to ACh), 6% in assay [3] and 93% in assay [4] (relative to ACh).
Take `CCOC(=O)N1CCC2(CC(N3CCC(N4CCCOC4=O)CC3)C2)C1` (single isomer, unassigned) [4-7 Isomer 2, ethyl 2-[4-(2-oxo-1,3-oxazinan-3-yl)piperidin-1-yl]-6-azaspiro[3.4]octane-6-carboxylate]: the EC50 in assay [1] is 251 nM; in assay [2] it was greater than 20000 nM; in assay [3] it was greater than 20000 nM; in assay [4] (setting [5]), 3980 nM. In addition, the Emax in assay [1] was 67%; in assay [2] (relative to ACh), 10%; in assay [3], 1%; in assay [4] (relative to ACh), 73%.
For the molecule `CCOC(=O)N1CCC2(CC(N3CCC(N4CC(F)(F)C[C@@H]4C(=O)N(C)OC)CC3)C2)C1` (single isomer, unassigned) [2-92 Isomer 2], the EC50 in assay [1] was 31.6 nM; in assay [2], greater than 20000 nM; in assay [3] it was greater than 20000 nM; in assay [4] (setting [5]), 3160 nM. The Emax was 82% in assay [1], 5% in assay [2] (relative to ACh), 2% in assay [3] and 50% in assay [4] (relative to ACh).
Consider `CCOC(=O)N1CCC2(CC(N3CCC(C4CCCN4C(=O)OCC)CC3)C2)C1` (single isomer, unassigned) [2-14 Isomer 2, ethyl 2-{4-[1-(ethoxycarbonyl)pyrrolidin-2-yl]piperidin-1-yl}-6-azaspiro[3.4]octane-6-carboxylate], for which the EC50 in assay [1] is 15.8 nM; in assay [2] it was greater than 20000 nM; in assay [3], greater than 20000 nM; in assay [4] (setting [5]), greater than 20000 nM. In addition, the Emax stood at 91% in assay [1], 7% in assay [2] (relative to ACh), 3% in assay [3] and 43% in assay [4] (relative to ACh).
